Data reported in patent US20140315797A1, “Novel N-Terminally Modified Insulin Derivatives” (priority 2010, published 2014).
Starred links: 1 amine or outer side, 2 acyl side, 3 side chain; linkers in the order of their positions; H or OH if unused. Positions of bridges follow the written chain, without caps; N, C: chain ends. Groups on a side chain read outwards from the residue. Chains are numbered I, II in the order given. No end group written: not given here. *: point of attachment. Phe(Nα-CONH2) = NC(=O)N[C@@H](Cc1ccccc1)C(=O)*; C20 diacid = O=C(O)CCCCCCCCCCCCCCCCCCC(=O)*; C18 diacid = O=C(O)CCCCCCCCCCCCCCCCC(=O)*; C16 diacid = O=C(O)CCCCCCCCCCCCCCC(=O)*; NMe2Phe = CN(C)[C@@H](Cc1ccccc1)C(=O)*; γGlu = O=C(O)[C@H](CCC(=O)[*:2])N[*:1]; Hydantoyl = NC(=O)NCC(=O)*; AEEA = NCCOCCOCC(=O)O; Me2Gly = CN(C)CC(=O)*

Key:
[1] = target: T1, human insulin receptor (IR-A) (Homo sapiens, UniProt P06213); test: Insulin receptor affinity, SPA antibody capture assay, 0% HSA; assay type: binding; conditions: relative to affinity of human insulin
Experimental: (§1) The affinity of the acylated insulin analogues of this invention for the human insulin receptor is determined by a SPA assay (Scintillation Proximity Assay) microtiterplate antibody capture assay. SPA-PVT antibody-binding beads, anti-mouse reagent (Amersham Biosciences, Cat No. PRNQ0017) are mixed with 25 ml of binding buffer (100 mM HEPES pH 7.8; 100 mM sodium chloride, 10 mM MgSO4, 0.025% Tween-20). Reagent mix for a single Packard Optiplate (Packard No. 6005190) is composed of 2.4 μl of a 1:5000 diluted purified recombinant human insulin receptor (either with or without exon 11), an amount of a stock solution of A14Tyr[^125I]-human insulin corresponding to 5000 cpm per 100 μl of reagent mix, 12 μl of a 1:1000 dilution of F12 antibody, 3 ml of SPA-beads and binding buffer to a total of 12 ml. A total of 100 μl reagent mix is then added to each well in the Packard Optiplate and a dilution series of the insulin derivative is made in the Optiplate from appropriate samples. The samples are then incubated for 16 hours while gently shaken. The phases are the then separated by centrifugation for 1 min and the plates counted in a Topcounter. The binding data were fitted using the nonlinear regression algorithm in the GraphPad Prism 2.01 (GraphPad Software, San Diego, Calif.) and affinities are expressed relative (in percentage (%)) to the affinity of human insulin.

[2] = target: T1, human insulin receptor (IR-A); conditions: relative to affinity of human insulin; […] HSA in binding buffer
Experimental: as §1
A related assay is also used wherein the binding buffer also contains 1.5% HSA in order to mimic physiological conditions

[3] = tested on: duodenum lumen enzymes; conditions: pH 7.4
Experimental: Degradation of insulin analogs using duodenum lumen enzymes (prepared by filtration of duodenum lumen content) from SPD rats. The assay is performed by a robot in a 96 well plate (2 ml) with 16 wells available for insulin analogs and standards. Insulin analogs ˜15 μM are incubated with duodenum enzymes in 100 mM Hepes, pH=7.4 at 37° C., samples are taken after 1, 15, 30, 60, 120 and 240 min and reaction quenched by addition of TFA. Intact insulin analogs at each point are determined by RP-HPLC. Degradation half time is determined by exponential fitting of the data and normalized to half time determined for the reference insulins, A14E, B25H, desB30 human insulin or human insulin in each assay. The amount of enzymes added for the degradation is such that the half time for degradation of the reference insulin is between 60 min and 180 min.

T1 sequence (P06213 28-746 isoform P06213-2 limits assumed): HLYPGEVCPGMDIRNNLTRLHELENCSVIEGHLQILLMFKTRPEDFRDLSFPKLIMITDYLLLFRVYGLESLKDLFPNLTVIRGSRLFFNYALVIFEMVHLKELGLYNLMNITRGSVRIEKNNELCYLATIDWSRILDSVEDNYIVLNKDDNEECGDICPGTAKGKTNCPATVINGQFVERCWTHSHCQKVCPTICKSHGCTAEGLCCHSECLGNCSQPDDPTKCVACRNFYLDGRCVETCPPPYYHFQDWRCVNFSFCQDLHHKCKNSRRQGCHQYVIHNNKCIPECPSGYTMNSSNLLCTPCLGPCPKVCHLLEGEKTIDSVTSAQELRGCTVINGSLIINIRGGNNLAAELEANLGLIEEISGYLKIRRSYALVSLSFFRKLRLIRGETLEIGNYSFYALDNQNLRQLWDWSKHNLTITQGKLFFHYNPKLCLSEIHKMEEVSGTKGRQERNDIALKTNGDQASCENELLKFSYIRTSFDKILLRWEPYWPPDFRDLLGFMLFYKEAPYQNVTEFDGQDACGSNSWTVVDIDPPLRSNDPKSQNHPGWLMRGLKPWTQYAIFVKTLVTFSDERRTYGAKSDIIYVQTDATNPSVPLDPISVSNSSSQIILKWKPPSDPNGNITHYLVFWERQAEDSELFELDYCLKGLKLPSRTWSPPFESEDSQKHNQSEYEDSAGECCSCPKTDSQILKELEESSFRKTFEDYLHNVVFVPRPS
T1 sequence (P06213 763-1382 partner limits assumed): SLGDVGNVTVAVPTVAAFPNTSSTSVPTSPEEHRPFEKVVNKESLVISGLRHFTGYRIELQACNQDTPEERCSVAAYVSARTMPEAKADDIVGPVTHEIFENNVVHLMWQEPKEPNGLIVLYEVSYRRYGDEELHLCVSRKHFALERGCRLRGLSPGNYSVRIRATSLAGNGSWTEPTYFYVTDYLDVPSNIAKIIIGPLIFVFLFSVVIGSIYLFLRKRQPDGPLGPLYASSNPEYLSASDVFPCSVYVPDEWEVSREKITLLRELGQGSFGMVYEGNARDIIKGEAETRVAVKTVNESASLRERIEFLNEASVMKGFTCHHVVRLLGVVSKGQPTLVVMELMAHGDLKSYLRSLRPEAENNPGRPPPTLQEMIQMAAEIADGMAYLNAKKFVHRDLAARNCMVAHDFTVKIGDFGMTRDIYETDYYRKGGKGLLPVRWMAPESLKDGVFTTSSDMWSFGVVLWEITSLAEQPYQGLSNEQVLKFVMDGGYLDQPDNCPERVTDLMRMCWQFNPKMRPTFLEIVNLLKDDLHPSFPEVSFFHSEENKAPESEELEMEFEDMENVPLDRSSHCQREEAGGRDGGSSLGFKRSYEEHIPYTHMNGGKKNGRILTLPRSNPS

| Substance | Relative IR-A affinity (@ 0% HSA) (%) [1] | Relative IR-A affinity (@ […] HSA) (%)e [2] | Duodenum degradation. Relative stability vs. A14E, B25H, desB30 human insulin [3] |
| --- | --- | --- | --- |
| I: NMe2Phe-VNQHLCGSHLVEALHLVCGERGFHYTPK([AEEA-AEEA-γGlu-C20 diacid]) / II: Me2Gly-IVEQCCTSICSLEQLENYCN (disulfide I:6-II:6, I:18-II:19, II:5-II:10) [Example 7, A1(N^α,N^α-Dimethyl), A14E, B1(NP,N^α-dimethyl), B16H, B25H, B29K(N^εeicosanedioyl-gGlu-2xOEG), desB30 human insulin] | 0.5% | 0.03% | 0.4 |
| I: NMe2Phe-VNQHLCGSHLVEALYLVCGERGFHYPK([γGlu-C16 diacid]) / II: Me2Gly-IVEQCCTSICSLEQLENYCN (disulfide I:6-II:6, I:18-II:19, II:5-II:10) [Example 8, A1G(N^α,N^α-Dimethyl), A14E, B1F(N^α,N^α-dimethyl), B25H, desB27, B29K(N^εhexadecanedioyl-gGlu), desB30 human insulin] | 2.7% | 0.18% | 6.8 |
| I: NMe2Phe-VNQHLCGSHLVEALYLVCGERGFHYPK([γGlu-C18 diacid]) / II: Me2Gly-IVEQCCTSICSLEQLENYCN (disulfide I:6-II:6, I:18-II:19, II:5-II:10) [Example 4, A1(N^α, N^α-Dimethyl), A14E, B1(N^α, N^α-dimethyl), B25H, desB27, B29K(N^εoctadecanedioyl-gGlu), desB30 human insulin] | 1.7% | 0.03% | 8.6 |
| I: {Phe(Nα-CONH2)}-VNQHLCGSHLVEALHLVCGERGFFYPK([AEEA-AEEA-γGlu-C20 diacid]) / II: Hydantoyl-IVEQCCTSICSLEQLENYCN (disulfide I:6-II:6, I:18-II:19, II:5-II:10) [Example 30, A1G(N^αcarbamoyl), A14E, B1F(N^αcarbamoyl), B16H, desB27, B29K(N^εeicosanedioyl-gGlu-2xOEG), desB30 human insulin] |  |  | 4.9 |
| I: {Phe(Nα-CONH2)}-VNQHLCGSHLVEALYLVCGERGFFYPK([AEEA-AEEA-γGlu-C16 diacid]) / II: Hydantoyl-IVEQCCTSICSLEQLENYCN (disulfide I:6-II:6, I:18-II:19, II:5-II:10) [Example 20] | 4.7% | 0.48% | 1.8 |
| I: {Phe(Nα-CONH2)}-VNQHLCGSHLVEALYLVCGERGFFYPK([AEEA-AEEA-γGlu-C20 diacid]) / II: Hydantoyl-IVEQCCTSICSLEQLENYCN (disulfide I:6-II:6, I:18-II:19, II:5-II:10) [Example 29, A1G(N^αcarbamoyl), A14E, B1F(N^αcarbamoyl), desB27, B29K(N^εeicosanedioyl-gGlu-2xOEG), desB30 human insulin] | 2.6% | 0.20% | 3.0 |
| I: {Phe(Nα-CONH2)}-VNQHLCGSHLVEALYLVCGERGFFYPK([γGlu-C16 diacid]) / II: Hydantoyl-IVEQCCTSICSLEQLENYCN (disulfide I:6-II:6, I:18-II:19, II:5-II:10) [Example 19, A1G(N(alpha)carbamoyl), A14E, B1F(N(alpha)carbamoyl), desB27, B29K(N(eps)hexadecanedioyl-gGlu), desB30 human insulin] | 5.0% | 0.14% | 3.0 |
| I: {Phe(Nα-CONH2)}-VNQHLCGSHLVEALYLVCGERGFFYPK([γGlu-C18 diacid]) / II: Hydantoyl-IVEQCCTSICSLEQLENYCN (disulfide I:6-II:6, I:18-II:19, II:5-II:10) [Example 23, A1(N^αCarbamoyl), A14E, B1(N^αCarbamoyl), desB27, B29K(N^εoctadecanedioyl-gGlu), desB30 human insulin] | 2.7% | 0.04% | 6.6 |
| I: {Phe(Nα-CONH2)}-VNQHLCGSHLVEALYLVCGERGFFYPK([γGlu-C20 diacid]) / II: Hydantoyl-IVEQCCTSICSLEQLENYCN (disulfide I:6-II:6, I:18-II:19, II:5-II:10) [Example 21] | 1.3% | 0.07% | 6.2 |
| I: {Phe(Nα-CONH2)}-VNQHLCGSHLVEALYLVCGERGFHYPK([AEEA-AEEA-γGlu-C18 diacid]) / II: Hydantoyl-IVEQCCTSICSLEQLENYCN (disulfide I:6-II:6, I:18-II:19, II:5-II:10) [Example 18, A1(N^αCarbamoyl), A14E, B1(N^αCarbamoyl), B25H, desB27, B29K(N^εoctadecandioyl-gGlu-2xOEG), desB30 human insulin] | 0.4% | 0.04% | 5.6 |
| I: {Phe(Nα-CONH2)}-VNQHLCGSHLVEALYLVCGERGFHYTPK([γGlu-C16 diacid]) / II: Hydantoyl-IVEQCCTSICSLEQLENYCN (disulfide I:6-II:6, I:18-II:19, II:5-II:10) [Example 13, A1(N^αCarbamoyl), A14E, B1(N^αCarbamoyl), B25H, B29K(N^εhexadecanedioyl-gGlu), desB30 human insulin] | 0.3% | 0.02% | 1.5 |
| I: {Phe(Nα-CONH2)}-VNQHLCGSHLVEALYLVCGERGFHYTPK([γGlu-C20 diacid]) / II: Hydantoyl-IVEQCCTSICSLEQLENYCN (disulfide I:6-II:6, I:18-II:19, II:5-II:10) [Example 14, A1(N^αCarbamoyl), A14E, B1(N^αCarbamoyl), B25H, B29K(Feicosanedioyl-gGlu), desB30 human insulin] | 0.2% | 0.00% | 0.9 |
